Consider 10 compounds from ChEMBL document CHEMBL1201862, “PubChem BioAssay data set” (2004).

Among the test systems are ACHN; CCRF-CEM; DU-145; HCT-15; HL-60; HT-29; K562; LOX IMVI; MDA-MB-231; MDA-MB-435; NCI-H522; OVCAR-3; OVCAR-4; OVCAR-5; PC-3; SF-539; T47D; U-251; UACC-257; UO-31.
Holding throughout (assay): DTP human tumour cell line panel, 48 h

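Test compounds were applied to cells in 96-well plates for 48 hours at 5 doses. Here, GI50 denotes the concentration required for 50% inhibition of growth.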 Calls of active or inactive are those of the source. No stated cut-off is given here; in the data, active = GI50 up to about 1.1 µM and inactive = higher. Where only a bound is given, the exact number is not on record here.

One may read the GI50 as the concentration that inhibits growth by half. On to `N/C(=N/O)c1cn(C2OC(CO)C(O)C2O)c2ncnc(NO)c12` (centres undefined), for which the concentration for 50% growth inhibition (GI50) in the experiment on ACHN is 0.0189 µM (active); with CCRF-CEM it was 0.0165 µM (active); in the experiment on DU-145, 0.112 µM (active); in the experiment on HCT-15 it was 0.184 µM; with HL-60, 0.166 µM (active); in the experiment on HT-29, 0.461 µM (active). The concentration for 50% growth inhibition (GI50) is 0.184 µM (active) with K562; 0.123 µM (active) in the experiment with LOX IMVI; 0.0344 µM (active) with MDA-MB-231; 0.0962 µM (active) in the experiment with MDA-MB-435; 0.0226 µM (active) with NCI-H522; 0.255 µM (active) in the experiment with OVCAR-3. For the same compound, the GI50 is 0.265 µM (active) with OVCAR-4; 0.656 µM (active) in the experiment with OVCAR-5; 0.0621 µM (active) in the experiment with PC-3; 0.117 µM (active) in the experiment on SF-539; 0.037 µM (active) in the experiment on T47D; 0.226 µM (active) in the experiment with U-251. Also, the GI50 in the experiment on UACC-257 is 0.224 µM (active); in the experiment on UO-31, 0.084 µM (active).

Take `C=CCN(C(=O)OC(C)(C)C)[C@H](C)C(=O)N[C@@H](C)C(=O)OC`: the GI50 in the experiment on ACHN is > 100 µM (inactive); with CCRF-CEM, 36 µM (inactive); in the experiment with DU-145, > 100 µM (inactive); in the experiment on HCT-15, over 100 µM; with HL-60 it was 1.2 µM (inactive); in the experiment with HT-29, > 100 µM (inactive). For the same compound, the GI50 in the experiment with K562, with LOX IMVI, in the experiment on MDA-MB-231, in the experiment on MDA-MB-435, in the experiment on NCI-H522 and in the experiment on OVCAR-3 was > 100 µM (inactive) throughout. The GI50 in the experiment on OVCAR-4, with OVCAR-5, in the experiment with PC-3, with SF-539, with T47D and in the experiment on U-251 was > 100 µM (inactive) each time. In addition, in the experiment with UO-31, the GI50 was > 100 µM (inactive).

For `COC(=O)[C@@H](OC(C)=O)[C@@H](OC(C)=O)c1nnc2ccc(Cl)nn12`, the GI50 was > 100 µM (inactive) with ACHN; > 100 µM (inactive) in the experiment on CCRF-CEM; > 100 µM (inactive) in the experiment on DU-145; over 100 µM in the experiment with HCT-15; > 100 µM (inactive) in the experiment with HL-60; > 100 µM (inactive) in the experiment on HT-29. For the same compound, the GI50 is > 100 µM (inactive) in the experiment with LOX IMVI; > 100 µM (inactive) in the experiment on MDA-MB-231; > 100 µM (inactive) in the experiment with MDA-MB-435; 22.2 µM (inactive) in the experiment on NCI-H522; > 100 µM (inactive) in the experiment on OVCAR-3; > 100 µM (inactive) in the experiment on OVCAR-4. The GI50 in the experiment with OVCAR-5 was > 100 µM (inactive); in the experiment on PC-3 it was > 100 µM (inactive); in the experiment on SF-539 it was > 100 µM (inactive); in the experiment on T47D, > 100 µM (inactive); with U-251, > 100 µM (inactive); with UACC-257, 87.9 µM (inactive).

In the case of `CCOP(=O)(OCC)C(C)(CC)N/C(=N\C1=NC(C(F)(F)F)(C(F)(F)F)N=C(C(F)(F)F)O1)NC(NC(C)=O)(C(F)(F)F)C(F)(F)F` (centres undefined), the GI50 was 28.8 µM (inactive) in the experiment on ACHN; 15.8 µM (inactive) in the experiment with CCRF-CEM; 81.5 µM (inactive) in the experiment with DU-145; 58.5 µM in the experiment with HCT-15; 17.8 µM (inactive) in the experiment on HL-60; 20.7 µM (inactive) in the experiment on HT-29. For the same compound, the GI50 with K562 is 16.9 µM (inactive); in the experiment on LOX IMVI, 32.2 µM (inactive); with MDA-MB-231, 22.9 µM (inactive); with MDA-MB-435, 32.7 µM (inactive); in the experiment with NCI-H522, 27 µM (inactive); with OVCAR-3 it was 40.3 µM (inactive). Moreover, the GI50 with OVCAR-4 is 16.5 µM (inactive); with OVCAR-5 it was 45 µM (inactive); with PC-3 it was 21.2 µM (inactive); in the experiment on SF-539 it was 40.2 µM (inactive); in the experiment on T47D, 22.7 µM (inactive); with U-251, 31 µM (inactive). Moreover, the GI50 in the experiment on UACC-257 is 31.8 µM (inactive).

On to `CCOC(=O)NNC(=O)NCc1ccccc1CNC(=O)NNC(=O)OCC`, for which the GI50 with CCRF-CEM is > 100 µM (inactive); in the experiment on DU-145, > 100 µM (inactive); with HCT-15, over 100 µM; in the experiment with HL-60, > 100 µM (inactive); in the experiment on HT-29, > 100 µM (inactive); in the experiment on K562, > 100 µM (inactive). Further, the GI50 in the experiment with LOX IMVI, with MDA-MB-231, in the experiment on MDA-MB-435, with NCI-H522, in the experiment with OVCAR-3 and in the experiment on OVCAR-4 was > 100 µM (inactive) each time. In addition, the GI50 in the experiment with OVCAR-5, with PC-3, in the experiment with SF-539, with T47D, in the experiment on U-251 and in the experiment with UACC-257 was > 100 µM (inactive) in each case. For the same compound, the GI50 in the experiment on UO-31 was > 100 µM (inactive).

Turning to `Cc1c(CNc2ccc(C(=O)NC(CC(=O)O)C(=O)O)cc2)ccc2nc(N)nc(N)c12` (centres undefined), the GI50 was < 0.01 µM (active) in the experiment on ACHN; < 0.01 µM (active) in the experiment with CCRF-CEM; < 0.01 µM (active) in the experiment on DU-145; under 0.01 µM in the experiment on HCT-15; < 0.01 µM (active) in the experiment with HL-60; < 0.01 µM (active) in the experiment with HT-29. Moreover, the GI50 with K562 is 0.0101 µM (active); in the experiment with LOX IMVI it was < 0.01 µM (active); in the experiment on MDA-MB-231, > 100 µM (inactive); in the experiment with MDA-MB-435, < 0.01 µM (active); with NCI-H522 it was < 0.018 µM (active); with OVCAR-4, > 100 µM (inactive). Besides, the GI50 is 13.4 µM (inactive) with PC-3; 0.0127 µM (active) in the experiment on SF-539; > 100 µM (inactive) with T47D; 0.0546 µM (active) in the experiment on U-251; 0.605 µM (active) in the experiment with UACC-257; < 0.018 µM (active) in the experiment with UO-31.

Consider `CCOc1cc(C2SCC(=O)N2c2nc3cc4sc(N5C(=O)CSC5c5ccc(O)c(OCC)c5)nc4cc3s2)ccc1O` (centres undefined), for which the GI50 in the experiment with ACHN is > 48.4 µM (inactive); with CCRF-CEM, 4.16 µM (inactive); in the experiment with DU-145, 17.8 µM (inactive); with HCT-15 it was 8.47 µM; in the experiment with HL-60, 61.2 µM (inactive); in the experiment on HT-29 it was 18.4 µM (inactive). In addition, the GI50 with K562 was > 64.6 µM (inactive); in the experiment with LOX IMVI, 38.3 µM (inactive); with MDA-MB-231, > 48.5 µM (inactive); in the experiment with MDA-MB-435, 29.9 µM (inactive); in the experiment with NCI-H522, 20.4 µM (inactive); in the experiment with OVCAR-3, > 100 µM (inactive). Moreover, the GI50 in the experiment on OVCAR-4 was 48.4 µM (inactive); in the experiment on OVCAR-5, > 100 µM (inactive); in the experiment with PC-3, 58.5 µM (inactive); in the experiment with SF-539, 15.7 µM (inactive); in the experiment with T47D it was 40.2 µM (inactive); with U-251, 26.5 µM (inactive). The GI50 with UO-31 was 21.4 µM (inactive).

`COc1ccc2ccccc2c1C1NC(=O)c2ccccc2N1` (centres undefined): the GI50 in the experiment with ACHN was 1.26 µM (inactive); in the experiment with CCRF-CEM it was 0.711 µM (active); in the experiment with DU-145 it was 1.53 µM (inactive); in the experiment with HCT-15 it was 0.436 µM; with HL-60, 0.0518 µM (active); with HT-29 it was 0.873 µM (active). Besides, the GI50 with K562 was 0.279 µM (active); in the experiment with LOX IMVI it was 0.995 µM (active); with MDA-MB-231, 3.63 µM (inactive); with MDA-MB-435 it was 0.234 µM (active); in the experiment on NCI-H522 it was 1.54 µM (inactive); in the experiment with OVCAR-3, 0.398 µM (active). Further, the GI50 in the experiment with OVCAR-5 is 3.39 µM (inactive); in the experiment with PC-3 it was 0.519 µM (active); in the experiment with SF-539, 1.55 µM (inactive); in the experiment on T47D, 12.1 µM (inactive); in the experiment on U-251, 2.28 µM (inactive); in the experiment with UACC-257, 20.8 µM (inactive). Besides, the GI50 with UO-31 is 11.3 µM (inactive).

In the case of `O=C1/C(=C/c2cccc(Oc3ccccc3)c2)N=C(c2ccccc2)N1c1nc2ccc(Sc3ccccc3)cc2[nH]1`, the GI50 was 54.3 µM (inactive) with ACHN; 24.6 µM (inactive) with CCRF-CEM; 27.3 µM (inactive) in the experiment with DU-145; 28 µM with HCT-15; 20.4 µM (inactive) with HL-60; 23.5 µM (inactive) with HT-29. Further, the GI50 is 23.7 µM (inactive) with K562; 30.9 µM (inactive) with LOX IMVI; 19.8 µM (inactive) in the experiment on MDA-MB-231; 15.4 µM (inactive) in the experiment on MDA-MB-435; 25.2 µM (inactive) in the experiment with NCI-H522; 15.8 µM (inactive) with OVCAR-3. Further, the GI50 was 47.3 µM (inactive) with OVCAR-4; 57.8 µM (inactive) in the experiment on OVCAR-5; 29.9 µM (inactive) in the experiment on PC-3; 23.6 µM (inactive) with T47D; 27.4 µM (inactive) with U-251; 29.4 µM (inactive) in the experiment on UACC-257. In addition, in the experiment with UO-31, the GI50 was 50.1 µM (inactive).

Take `O=C(NCCN(CCNC(=O)c1cccc(O)c1O)CCNC(=O)c1cccc(O)c1O)c1cccc(O)c1O` [TRENCAM]: the GI50 in the experiment with ACHN was 4.2 µM (inactive); with DU-145, 6.98 µM (inactive); with HCT-15 it was 10.4 µM; in the experiment with HL-60 it was 8.02 µM (inactive); with HT-29 it was 5.31 µM (inactive); in the experiment on K562, 5.28 µM (inactive). Also, the GI50 in the experiment on LOX IMVI is 1.22 µM (inactive); with MDA-MB-231, 6.07 µM (inactive); with MDA-MB-435 it was 21.7 µM (inactive); with NCI-H522 it was 0.826 µM (active); with OVCAR-3, 2.69 µM (inactive); with OVCAR-4 it was 0.578 µM (active). Also, the GI50 in the experiment on OVCAR-5 is 66.2 µM (inactive); in the experiment on PC-3, 11.4 µM (inactive); in the experiment on SF-539, 3.85 µM (inactive); with T47D it was 9.73 µM (inactive); in the experiment on U-251 it was 6.49 µM (inactive); in the experiment on UACC-257 it was 19.5 µM (inactive). In addition, in the experiment on UO-31, the GI50 was 14.9 µM (inactive).
